Reference: patent publication US20040029129A1, “Identification of essential genes in microorganisms” (priority 2001, published 2004)
Converted amounts (≈) assume the structure as drawn.

Legend:
[1] = test system: Staphylococcus aureus cells containing antisense to the Beta subunit of DNA gyrase (S1M10000001F08); experiment: Antibiotic potency in cells with xylose-induced antisense to the Beta subunit of DNA gyrase; type: cell-based; details: 12 mM xylose versus 0 mM xylose; FIG. 10
[2] = test system: E. coli transformed with IPTG-inducible antisense clones; experiment: Cell-based assay using antisense complementary to genes encoding ribosomal proteins (antibiotic sensitivity with and without IPTG); details: with IPTG versus without IPTG; for Sensitivity to antibiotic of cells transcribing antisense to protein synthesis genes: AS-rplL, AS-rplW, AS-rplL/J and other protein synthesis gene clones
[3] = test system: Strains of Staphylococcus aureus containing plasmids encoding antisense nucleic acids; experiment: Selective disappearance of amplification products of strains underexpressing the antibiotic's target (mixed antisense strains); type: cell-based; details: rich medium
[4] = test system: Staphylococcus aureus cells overexpressing a gene product required for proliferation; experiment: Growth of strains overexpressing a proliferation-required gene (XylT5 promoter) at elevated antibiotic concentrations; type: cell-based; details: for resistance conferred by overexpression of the defB gene: defB (peptide deformylase) overexpressed, FIG. 16; for resistance conferred by overexpression of the fabF gene: fabF (β keto-acyl carrier protein synthase II) overexpressed, FIG. 17; for resistance conferred by overexpression of the fabI gene: fabI (enoyl-acyl carrier protein reductase) overexpressed, FIG. 14; for resistance conferred by overexpression of the folA gene: folA (dihydrofolate reductase) overexpressed, FIG. 15
[5] = test system: cells which overexpress the defB gene product; experiment: Growth of cells overexpressing the defB gene in the presence of antibiotics; type: cell-based; details: FIG. 16
[6] = test system: overexpression of the fabI gene; experiment: Growth of cells overexpressing the fabI gene in the presence of antibiotics; type: cell-based; details: FIG. 14
[7] = test system: cells which overexpress the folA gene product; experiment: Growth of cells overexpressing the folA gene in the presence of antibiotics; type: cell-based; details: for resistance conferred by overexpression of the folA gene: FIG. 15
[8] = test system: overexpression of the fabF gene (β keto-acyl carrier protein synthase); experiment: Growth of cells overexpressing the fabF gene in the presence of antibiotics; type: cell-based; details: FIG. 17
[9] = test system: mixture of nine S. aureus strains overexpressing fabF, defB, folA, fabI, ileS, fusA, gyrB, murA, rpoB; experiment: Selection of a strain overexpressing the target gene product from a mixture of nine overexpressing strains; type: cell-based; details: folA gene; at least 60 colonies

SMILES: CO/N=C(\C(=O)N[C@@H]1C(=O)N2C(C(=O)O)=C(COC(C)=O)CS[C@H]12)c1csc(N)n1 [Cefotaxime]
- Potency in induced cells as compared to uninduced cells [1]: not significantly different

SMILES: CO[C@@]1(NC(=O)Cc2cccs2)C(=O)N2C(C(=O)O)=C(COC(N)=O)CS[C@@H]21 [Cefoxitin]
- Potency in induced cells as compared to uninduced cells [1]: not significantly different

SMILES: CC[C@H]1OC(=O)[C@H](C)[C@@H](O[C@H]2C[C@@](C)(OC)[C@@H](O)[C@H](C)O2)[C@H](C)[C@@H](O[C@@H]2O[C@H](C)C[C@H](N(C)C)[C@H]2O)[C@](C)(O)C[C@@H](C)C(=O)[C@H](C)[C@@H](O)[C@]1(C)O [Erythromycin]
- Sensitivity to antibiotic of cells transcribing antisense to genes not involved in protein synthesis ([2]; AS-atpB/E, AS-visC, AS-elaD, AS-yohH): do not
- Sensitivity to antibiotic of cells transcribing antisense to protein synthesis genes [2]: increased sensitivity

SMILES: CC(=O)O[C@H]1C[C@@]2(C)[C@@H](C[C@@H](O)[C@H]3[C@@]4(C)CC[C@@H](O)[C@@H](C)[C@@H]4CC[C@@]32C)/C1=C(\CCC=C(C)C)C(=O)O [Fusidic acid]
- Potency in induced cells as compared to uninduced cells [1]: not significantly different

SMILES: CCC[C@@H]1C[C@@H](C(=O)N[C@@H]([C@H]2O[C@H](SC)[C@H](O)[C@@H](O)[C@H]2O)[C@@H](C)O)N(C)C1 [Lincomycin]
- Potency in induced cells as compared to uninduced cells [1]: not significantly different

SMILES: CCn1cc(C(=O)O)c(=O)c2ccc(C)nc21 [Nalidixic acid]
- Sensitivity to antibiotic of cells transcribing antisense to protein synthesis genes [2]: does not show increased sensitivity

SMILES: NC[C@H]1O[C@H](O[C@H]2[C@H](O)[C@@H](O[C@H]3O[C@H](CO)[C@@H](O)[C@H](N)[C@H]3O)[C@H](N)C[C@@H]2N)[C@H](N)C[C@@H]1O [Tobramycin]
- Potency in induced cells as compared to uninduced cells [1]: not significantly different

SMILES: CN[C@H](CC(C)C)C(=O)N[C@H]1C(=O)N[C@@H](CC(N)=O)C(=O)N[C@H]2C(=O)N[C@H]3C(=O)N[C@H](C(=O)N[C@H](C(=O)O)c4cc(O)cc(O)c4-c4cc3ccc4O)[C@H](O)c3ccc(c(Cl)c3)Oc3cc2cc(c3O[C@@H]2O[C@H](CO)[C@@H](O)[C@H](O)[C@H]2O[C@H]2C[C@](C)(N)[C@H](O)[C@H](C)O2)Oc2ccc(cc2Cl)[C@H]1O [Vancomycin]
- Potency in induced cells as compared to uninduced cells [1]: not significantly different

SMILES: C/C=C/C/C=C/CCC(=O)[C@H]1O[C@H]1C(N)=O [cerulenin]
- IC50 ([3]; read-out: IC50 (middle concentration used)): 9 µg/mL (≈ 40.3 µM)
- resistance conferred by overexpression of the defB gene [4]: did not confer resistance
- resistance conferred by overexpression of the fabF gene [4]: conferred resistance
- resistance conferred by overexpression of the fabI gene [4]: did not confer resistance
- resistance conferred by overexpression of the folA gene [4]: did not confer resistance
- resistance conferred by overexpression of the defB gene [5]: does not confer resistance
- resistance conferred by overexpression of the fabI gene [6]: does not confer resistance
- resistance conferred by overexpression of the folA gene [7]: does not confer resistance
- resistance conferred by overexpression of the fabF gene [8]: conferred resistance

SMILES: C/C(=C\C(=O)OCCCCCCCCC(=O)O)C[C@@H]1OC[C@H](C[C@@H]2O[C@H]2[C@@H](C)[C@H](C)O)[C@@H](O)[C@H]1O [mupriocin]
- IC50 (middle concentration used) [3]: 8.6 µg/mL (≈ 17.2 µM)

SMILES: CO[C@@H]1[C@@H](OC(N)=O)[C@@H](O)[C@H](Oc2ccc3c(O)c(NC(=O)c4ccc(O)c(CC=C(C)C)c4)c(=O)oc3c2C)OC1(C)C [novobiocin]
- Potency in induced cells as compared to uninduced cells [1]: significantly different

SMILES: Oc1cc(Cl)ccc1Oc1ccc(Cl)cc1Cl [triclosan]
- resistance conferred by overexpression of the defB gene [4]: did not confer resistance
- resistance conferred by overexpression of the fabF gene [4]: did not confer resistance
- resistance conferred by overexpression of the fabI gene [4]: conferred resistance
- resistance conferred by overexpression of the folA gene [4]: did not confer resistance
- resistance conferred by overexpression of the defB gene [5]: does not confer resistance
- resistance conferred by overexpression of the fabI gene [6]: confers resistance
- resistance conferred by overexpression of the folA gene [7]: does not confer resistance
- resistance conferred by overexpression of the fabF gene [8]: does not confer resistance

SMILES: COc1cc(Cc2cnc(N)nc2N)cc(OC)c1OC [trimethoprim]
- resistance conferred by overexpression of the defB gene [4]: did not confer resistance
- resistance conferred by overexpression of the fabF gene [4]: did not confer resistance
- resistance conferred by overexpression of the fabI gene [4]: did not confer resistance
- resistance conferred by overexpression of the folA gene [4]: conferred resistance
- resistance conferred by overexpression of the defB gene [5]: does not confer resistance
- resistance conferred by overexpression of the fabI gene [6]: does not confer resistance
- resistance conferred by overexpression of the folA gene [7]: confers resistance
- growth of cells overexpressing the folA gene product in presence of antibiotic ([7]; at appropriate concentrations of inducer, FIG. 13): able to grow at elevated concentrations
- resistance conferred by overexpression of the fabF gene [8]: does not confer resistance
- Potency in induced cells as compared to uninduced cells [1]: not significantly different
- Plasmids from colonies which grew in the presence of the antibiotic that contained the target gene [9]: 81%
